Test results taken from ChEMBL document CHEMBL1201862, “PubChem BioAssay data set” (2004).
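Each compound was tested at five concentrations against cells in 96-well plates for 48 hours. GI50 is the concentration that inhibits growth by half.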 Calls of active or inactive are those of the source. Rule as the data show it: active = GI50 up to about 1.1 µM and inactive = higher.

Experiments:
Test in all cases: DTP human tumour cell line panel, 48 h
786-0 = tested on: 786-0
A498 = tested on: A498
A549 = tested on: A549
ACHN = tested on: ACHN
CAKI-1 = tested on: CAKI-1
CCRF-CEM = tested on: CCRF-CEM
DLD-1 = tested on: DLD-1
DMS-114 = tested on: DMS-114
DMS-273 = tested on: DMS-273
EKVX = tested on: EKVX
HCC 2998 = tested on: HCC 2998
HCT-116 = tested on: HCT-116
HCT-15 = tested on: HCT-15
HL-60 = tested on: HL-60
HOP-18 = tested on: HOP-18
HOP-62 = tested on: HOP-62
HOP-92 = tested on: HOP-92
HT-29 = tested on: HT-29
IGROV-1 = tested on: IGROV-1
K562 = tested on: K562
KM-20L2 = tested on: KM-20L2
KM12 = tested on: KM12
LXFL 529 = tested on: LXFL 529
M14 = tested on: M14
M19-MEL = tested on: M19-MEL
MOLT-4 = tested on: MOLT-4
Malme-3M = tested on: Malme-3M
NCI-H226 = tested on: NCI-H226
NCI-H23 = tested on: NCI-H23
NCI-H460 = tested on: NCI-H460
NCI-H522 = tested on: NCI-H522
OVCAR-4 = tested on: OVCAR-4
OVCAR-5 = tested on: OVCAR-5
OVCAR-8 = tested on: OVCAR-8
RPMI-8226 = tested on: RPMI-8226
RXF 393 = tested on: RXF 393
SF-268 = tested on: SF-268
SF-295 = tested on: SF-295
SF-539 = tested on: SF-539
SK-MEL-28 = tested on: SK-MEL-28
SK-MEL-2 = tested on: SK-MEL-2
SK-MEL-5 = tested on: SK-MEL-5
SK-OV-3 = tested on: SK-OV-3
SN12C = tested on: SN12C
SNB-19 = tested on: SNB-19
SNB-75 = tested on: SNB-75
SNB-78 = tested on: SNB-78
SR = tested on: SR
SW-620 = tested on: SW-620
TK-10 = tested on: TK-10
U-251 = tested on: U-251
UACC-257 = tested on: UACC-257
UACC-62 = tested on: UACC-62
UO-31 = tested on: UO-31
XF498 = tested on: XF498
COLO 205 = tested on: COLO 205
LOX IMVI = tested on: LOX IMVI
OVCAR-3 = tested on: OVCAR-3
RXF 631 = tested on: RXF 631

SMILES: CN(C)C(=O)NC(=S)N(C)C
- GI50 (786-0): > 100 µM (inactive)
- GI50 (A498): > 100 µM (inactive)
- GI50 (A549): > 100 µM (inactive)
- GI50 (ACHN): > 100 µM (inactive)
- GI50 (CAKI-1): > 100 µM (inactive)
- GI50 (CCRF-CEM): > 100 µM (inactive)
- GI50 (DLD-1): > 100 µM (inactive)
- GI50 (DMS-114): > 100 µM (inactive)
- GI50 (DMS-273): > 100 µM (inactive)
- GI50 (EKVX): > 100 µM (inactive)
- GI50 (HCC 2998): > 100 µM (inactive)
- GI50 (HCT-116): > 100 µM (inactive)
- GI50 (HCT-15): 17.1 µM
- GI50 (HL-60): > 100 µM (inactive)
- GI50 (HOP-18): > 100 µM (inactive)
- GI50 (HOP-62): 0.294 µM (active)
- GI50 (HOP-92): > 100 µM (inactive)
- GI50 (HT-29): > 100 µM (inactive)
- GI50 (IGROV-1): > 100 µM (inactive)
- GI50 (K562): > 100 µM (inactive)
- GI50 (KM-20L2): > 100 µM (inactive)
- GI50 (KM12): > 100 µM (inactive)
- GI50 (LXFL 529): > 100 µM (inactive)
- GI50 (M14): > 100 µM (inactive)
- GI50 (M19-MEL): > 100 µM (inactive)
- GI50 (MOLT-4): > 100 µM (inactive)
- GI50 (Malme-3M): > 100 µM (inactive)
- GI50 (NCI-H226): 55.1 µM (inactive)
- GI50 (NCI-H23): > 100 µM (inactive)
- GI50 (NCI-H460): > 100 µM (inactive)
- GI50 (NCI-H522): > 100 µM (inactive)
- GI50 (OVCAR-4): > 100 µM (inactive)
- GI50 (OVCAR-5): > 100 µM (inactive)
- GI50 (OVCAR-8): > 100 µM (inactive)
- GI50 (RPMI-8226): > 100 µM (inactive)
- GI50 (RXF 393): > 100 µM (inactive)
- GI50 (SF-268): > 100 µM (inactive)
- GI50 (SF-295): > 100 µM (inactive)
- GI50 (SF-539): > 100 µM (inactive)
- GI50 (SK-MEL-28): > 100 µM (inactive)
- GI50 (SK-MEL-2): > 100 µM (inactive)
- GI50 (SK-MEL-5): > 100 µM (inactive)
- GI50 (SK-OV-3): > 100 µM (inactive)
- GI50 (SN12C): > 100 µM (inactive)
- GI50 (SNB-19): > 100 µM (inactive)
- GI50 (SNB-75): > 100 µM (inactive)
- GI50 (SNB-78): > 100 µM (inactive)
- GI50 (SR): > 100 µM (inactive)
- GI50 (SW-620): > 100 µM (inactive)
- GI50 (TK-10): > 100 µM (inactive)
- GI50 (U-251): 0.206 µM (active)
- GI50 (UACC-257): > 100 µM (inactive)
- GI50 (UACC-62): > 100 µM (inactive)
- GI50 (UO-31): > 100 µM (inactive)
- GI50 (XF498): > 100 µM (inactive)

SMILES: Cc1nccc2c1cnc1ccnn12
- GI50 (786-0): > 100 µM (inactive)
- GI50 (A498): > 100 µM (inactive)
- GI50 (A549): > 100 µM (inactive)
- GI50 (ACHN): > 100 µM (inactive)
- GI50 (CAKI-1): > 100 µM (inactive)
- GI50 (CCRF-CEM): > 100 µM (inactive)
- GI50 (COLO 205): > 100 µM (inactive)
- GI50 (DLD-1): > 100 µM (inactive)
- GI50 (DMS-114): > 100 µM (inactive)
- GI50 (DMS-273): > 100 µM (inactive)
- GI50 (EKVX): 67.1 µM (inactive)
- GI50 (HCC 2998): > 100 µM (inactive)
- GI50 (HCT-116): > 100 µM (inactive)
- GI50 (HCT-15): > 100 µM
- GI50 (HL-60): > 100 µM (inactive)
- GI50 (HOP-62): > 100 µM (inactive)
- GI50 (HOP-92): > 100 µM (inactive)
- GI50 (HT-29): > 100 µM (inactive)
- GI50 (IGROV-1): > 100 µM (inactive)
- GI50 (K562): > 100 µM (inactive)
- GI50 (KM-20L2): > 100 µM (inactive)
- GI50 (KM12): > 100 µM (inactive)
- GI50 (LOX IMVI): > 100 µM (inactive)
- GI50 (LXFL 529): > 100 µM (inactive)
- GI50 (M14): > 100 µM (inactive)
- GI50 (M19-MEL): > 100 µM (inactive)
- GI50 (MOLT-4): > 100 µM (inactive)
- GI50 (Malme-3M): > 100 µM (inactive)
- GI50 (NCI-H226): > 100 µM (inactive)
- GI50 (NCI-H23): > 100 µM (inactive)
- GI50 (NCI-H460): > 100 µM (inactive)
- GI50 (NCI-H522): > 100 µM (inactive)
- GI50 (OVCAR-3): > 100 µM (inactive)
- GI50 (OVCAR-4): > 100 µM (inactive)
- GI50 (OVCAR-5): > 100 µM (inactive)
- GI50 (OVCAR-8): > 100 µM (inactive)
- GI50 (RPMI-8226): > 100 µM (inactive)
- GI50 (RXF 393): > 100 µM (inactive)
- GI50 (RXF 631): > 100 µM (inactive)
- GI50 (SF-268): > 100 µM (inactive)
- GI50 (SF-539): > 100 µM (inactive)
- GI50 (SK-MEL-28): > 100 µM (inactive)
- GI50 (SK-MEL-2): > 100 µM (inactive)
- GI50 (SK-MEL-5): > 100 µM (inactive)
- GI50 (SK-OV-3): > 100 µM (inactive)
- GI50 (SN12C): > 100 µM (inactive)
- GI50 (SNB-19): > 100 µM (inactive)
- GI50 (SNB-75): > 100 µM (inactive)
- GI50 (SNB-78): > 100 µM (inactive)
- GI50 (SR): > 100 µM (inactive)
- GI50 (SW-620): > 100 µM (inactive)
- GI50 (TK-10): > 100 µM (inactive)
- GI50 (U-251): > 100 µM (inactive)
- GI50 (UACC-257): > 100 µM (inactive)
- GI50 (UO-31): > 100 µM (inactive)

SMILES: N#CC(/C(=N\NC(=O)c1ccncc1)C(=O)Nc1ccc([N+](=O)[O-])cc1[N+](=O)[O-])c1nc(-c2ccc(Br)cc2)cs1 (stereo not drawn)
- GI50 (786-0): > 100 µM (inactive)
- GI50 (A498): > 100 µM (inactive)
- GI50 (A549): > 100 µM (inactive)
- GI50 (ACHN): > 100 µM (inactive)
- GI50 (CAKI-1): > 100 µM (inactive)
- GI50 (CCRF-CEM): > 100 µM (inactive)
- GI50 (COLO 205): > 100 µM (inactive)
- GI50 (DLD-1): > 100 µM (inactive)
- GI50 (DMS-114): > 100 µM (inactive)
- GI50 (EKVX): > 100 µM (inactive)
- GI50 (HCC 2998): > 100 µM (inactive)
- GI50 (HCT-116): > 100 µM (inactive)
- GI50 (HCT-15): > 100 µM
- GI50 (HL-60): > 100 µM (inactive)
- GI50 (HOP-62): > 100 µM (inactive)
- GI50 (IGROV-1): > 100 µM (inactive)
- GI50 (K562): > 100 µM (inactive)
- GI50 (KM-20L2): > 100 µM (inactive)
- GI50 (KM12): > 100 µM (inactive)
- GI50 (LOX IMVI): > 100 µM (inactive)
- GI50 (LXFL 529): > 100 µM (inactive)
- GI50 (M14): > 100 µM (inactive)
- GI50 (M19-MEL): > 100 µM (inactive)
- GI50 (MOLT-4): > 100 µM (inactive)
- GI50 (Malme-3M): > 100 µM (inactive)
- GI50 (NCI-H460): > 100 µM (inactive)
- GI50 (OVCAR-3): > 100 µM (inactive)
- GI50 (OVCAR-4): > 100 µM (inactive)
- GI50 (OVCAR-5): > 100 µM (inactive)
- GI50 (OVCAR-8): > 100 µM (inactive)
- GI50 (RPMI-8226): > 100 µM (inactive)
- GI50 (RXF 631): > 100 µM (inactive)
- GI50 (SF-268): > 100 µM (inactive)
- GI50 (SF-295): > 100 µM (inactive)
- GI50 (SF-539): > 100 µM (inactive)
- GI50 (SK-MEL-28): > 100 µM (inactive)
- GI50 (SK-MEL-2): > 100 µM (inactive)
- GI50 (SK-MEL-5): > 100 µM (inactive)
- GI50 (SK-OV-3): > 100 µM (inactive)
- GI50 (SNB-19): > 100 µM (inactive)
- GI50 (SNB-75): > 100 µM (inactive)
- GI50 (SNB-78): > 100 µM (inactive)
- GI50 (SW-620): > 100 µM (inactive)
- GI50 (TK-10): > 100 µM (inactive)
- GI50 (U-251): > 100 µM (inactive)
- GI50 (UACC-257): > 100 µM (inactive)
- GI50 (UACC-62): > 100 µM (inactive)
- GI50 (UO-31): > 100 µM (inactive)
